The source of these data is ChEMBL document CHEMBL1136062 (2002).

As usually defined, the MIC is the least concentration at which growth counts as inhibited. High values mean weaker potency, low ones greater potency.

Common to all, as to format: functional
The subject of test [1] is Enterococcus faecalis. In words: Tested in vitro for its antibacterial activity against vancomycin sensitive Enterococcus faecalis (MB2864).
In test [2] the test system is Staphylococcus aureus. The experiment in a line: Tested in vitro for its antibacterial activity against methicillin resistant Staphylococcus aureus (MH76).
Test [3] has as its system Staphylococcus aureus. In words: Tested in vitro for its antibacterial activity against methicillin sensitive Staphylococcus aureus (MB2985).
Test [4] relates to Enterococcus faecium. The experiment in a line: Tested in vitro for its antibacterial activity against vancomycin sensitive Enterococcus faecium (RLA1).
Test [5] relates to Staphylococcus aureus. In words: In vitro antibacterial activity against vancomycin intermediate resistant Staphylococcus aureus (CL5705).
The test system of test [6] is Enterococcus faecium. The experiment in a line: Tested in vitro for its antibacterial activity against vancomycin resistant Enterococcus faecium (MB5244).
Test [7] concerns Enterococcus faecium. The experiment in a line: Tested in vitro for its antibacterial activity against vancomycin resistant Enterococcus faecium (CL4931).
For test [8], the system named is Staphylococcus aureus. In words: In vitro antibacterial activity against vancomycin intermediate resistant Staphylococcus aureus (CL5706).
Test [9] has as its system Staphylococcus aureus. In words: Tested in vitro for its antibacterial activity against methicillin resistant Staphylococcus aureus (COL).
For test [10], the system named is Enterococcus faecalis. In words: Tested in vitro for its antibacterial activity against vancomycin resistant Enterococcus faecalis (MB4877).
Test [11] deals with Staphylococcus aureus. The experiment in a line: Tested in vitro for its antibacterial activity against methicillin resistant Staphylococcus aureus (Mh76).

≈ marks a conversion by molar mass, not a printed value.

For `CN[C@H](CC(C)C)C(=O)N[C@H]1C(=O)N[C@@H](CC(N)=O)C(=O)N[C@H]2C(=O)N[C@H]3C(=O)N[C@H](C(=O)N[C@H](C(=O)O)c4cc(O)cc(O)c4-c4cc3ccc4O)[C@H](O)c3ccc(c(Cl)c3)Oc3cc2cc(c3OC2OC(C[N+](C)(C)Cc3ccccc3)C(O)C(O)C2OC2CC(C)(NCc3ccc(OCc4ccc(Cl)c(Cl)c4)cc3)C(O)C(C)O2)Oc2ccc(cc2Cl)[C@H]1O` (some centres undefined), the MIC in the test with Enterococcus faecalis [1] is 2 µg/mL; with Staphylococcus aureus [2], 0.25 µg/mL; with Staphylococcus aureus [3], 0.25 µg/mL; in the test on Enterococcus faecium [4] it was 0.25 µg/mL; against Staphylococcus aureus [5], 1 µg/mL; with Enterococcus faecium [6] it was 1 µg/mL. Further, the MIC in the test on Enterococcus faecium [7] is > 64 µg/mL; with Staphylococcus aureus [8], 1 µg/mL; in the test with Staphylococcus aureus [9], 0.5 µg/mL; against Enterococcus faecalis [10], 16 µg/mL.

On to `CN[C@H](CC(C)C)C(=O)N[C@H]1C(=O)N[C@@H](CC(N)=O)C(=O)N[C@H]2C(=O)N[C@H]3C(=O)N[C@H](C(=O)N[C@H](C(=O)O)c4cc(O)cc(O)c4-c4cc3ccc4O)[C@H](O)c3ccc(c(Cl)c3)Oc3cc2cc(c3OC2OC(CN(C)C)C(O)C(O)C2OC2CC(C)(NCc3ccc(OCc4ccc(Cl)c(Cl)c4)cc3)C(O)C(C)O2)Oc2ccc(cc2Cl)[C@H]1O` (some centres undefined), for which the MIC in the test on Enterococcus faecalis [1] was 1 µg/mL (≈ 0.574 µM); in the test on Staphylococcus aureus [2], 0.25 µg/mL (≈ 0.144 µM); against Staphylococcus aureus [3] it was ≤ 0.03 µg/mL; against Enterococcus faecium [4], ≤ 0.03 µg/mL; with Staphylococcus aureus [5], 1 µg/mL (≈ 0.574 µM); against Enterococcus faecium [6], 1 µg/mL (≈ 0.574 µM). The MIC stood at 32 µg/mL (≈ 18.4 µM) in the test on Enterococcus faecium [7], 0.5 µg/mL (≈ 0.287 µM) in the test on Staphylococcus aureus [8], 0.5 µg/mL (≈ 0.287 µM) in the test on Staphylococcus aureus [9] and 16 µg/mL (≈ 9.19 µM) against Enterococcus faecalis [10].

As for `CN[C@H](CC(C)C)C(=O)N[C@H]1C(=O)N[C@@H](CC(N)=O)C(=O)N[C@H]2C(=O)N[C@H]3C(=O)N[C@H](C(=O)N[C@H](C(=O)O)c4cc(O)cc(O)c4-c4cc3ccc4O)[C@H](O)c3ccc(c(Cl)c3)Oc3cc2cc(c3OC2OC(C[N+]34CCN(CC3)CC4)C(O)C(O)C2OC2CC(C)(NCc3ccc(OCc4ccc(Cl)c(Cl)c4)cc3)C(O)C(C)O2)Oc2ccc(cc2Cl)[C@H]1O` (some centres undefined), the MIC in the test on Enterococcus faecalis [1] was found to be 2 µg/mL; in the test with Staphylococcus aureus [2] it was 1 µg/mL; in the test with Staphylococcus aureus [3], 1 µg/mL; against Enterococcus faecium [4], 0.5 µg/mL; in the test on Staphylococcus aureus [5], 2 µg/mL; against Enterococcus faecium [6], 1 µg/mL. The MIC was > 32 µg/mL against Enterococcus faecium [7], 2 µg/mL against Staphylococcus aureus [8], 1 µg/mL against Staphylococcus aureus [9] and 8 µg/mL against Enterococcus faecalis [10].

For `CN[C@H](CC(C)C)C(=O)N[C@H]1C(=O)N[C@@H](CC(N)=O)C(=O)N[C@H]2C(=O)N[C@H]3C(=O)N[C@H](C(=O)N[C@H](C(=O)O)c4cc(O)cc(O)c4-c4cc3ccc4O)[C@H](O)c3ccc(c(Cl)c3)Oc3cc2cc(c3OC2OC(C[N+](C)(C)C)C(O)C(O)C2OC2CC(C)(NCc3ccc(OCc4ccc(Cl)c(Cl)c4)cc3)C(O)C(C)O2)Oc2ccc(cc2Cl)[C@H]1O` (some centres undefined), the MIC in the test with Enterococcus faecalis [1] is 1 µg/mL; against Staphylococcus aureus [2], 0.5 µg/mL; with Staphylococcus aureus [3], 0.5 µg/mL; against Enterococcus faecium [4], 0.5 µg/mL; with Staphylococcus aureus [5], 2 µg/mL; in the test with Enterococcus faecium [6] it was 1 µg/mL. Moreover, the MIC was > 64 µg/mL against Enterococcus faecium [7], 2 µg/mL with Staphylococcus aureus [8], 0.5 µg/mL against Staphylococcus aureus [9] and 16 µg/mL against Enterococcus faecalis [10].

Regarding `CN[C@H](CC(C)C)C(=O)N[C@H]1C(=O)N[C@@H](CC(N)=O)C(=O)N[C@H]2C(=O)N[C@H]3C(=O)N[C@H](C(=O)N[C@H](C(=O)O)c4cc(O)cc(O)c4-c4cc3ccc4O)[C@H](O)c3ccc(c(Cl)c3)Oc3cc2cc(c3OC2OC(C[N+](C)(C)CCN(C)C)C(O)C(O)C2OC2CC(C)(NCc3ccc(OCc4ccc(Cl)c(Cl)c4)cc3)C(O)C(C)O2)Oc2ccc(cc2Cl)[C@H]1O` (some centres undefined), the MIC against Enterococcus faecalis [1] was 4 µg/mL; in the test on Staphylococcus aureus [3], 2 µg/mL; against Enterococcus faecium [4] it was 1 µg/mL; with Staphylococcus aureus [5], 2 µg/mL; in the test on Enterococcus faecium [6], 8 µg/mL; against Enterococcus faecium [7] it was > 64 µg/mL. For the same compound, the MIC was 4 µg/mL against Staphylococcus aureus [8], 2 µg/mL with Staphylococcus aureus [11], 2 µg/mL in the test on Staphylococcus aureus [9] and > 64 µg/mL against Enterococcus faecalis [10].

In the case of `CNCC1OC(Oc2c3cc4cc2Oc2ccc(cc2Cl)[C@@H](O)[C@@H](NC(=O)[C@@H](CC(C)C)NC)C(=O)N[C@@H](CC(N)=O)C(=O)N[C@H]4C(=O)N[C@H]2C(=O)N[C@H](C(=O)N[C@H](C(=O)O)c4cc(O)cc(O)c4-c4cc2ccc4O)[C@H](O)c2ccc(c(Cl)c2)O3)C(OC2CC(C)(NCc3ccc(OCc4ccc(Cl)c(Cl)c4)cc3)C(O)C(C)O2)C(O)C1O` (some centres undefined), the MIC against Enterococcus faecalis [1] is 0.25 µg/mL (≈ 0.145 µM); in the test with Staphylococcus aureus [2], 0.12 µg/mL (≈ 0.0695 µM); with Staphylococcus aureus [3] it was ≤ 0.03 µg/mL; in the test on Enterococcus faecium [4], 0.03 µg/mL (≈ 0.0174 µM); against Staphylococcus aureus [5], 1 µg/mL (≈ 0.579 µM); against Enterococcus faecium [6], 1 µg/mL (≈ 0.579 µM). Moreover, the MIC with Enterococcus faecium [7] turned out to be 32 µg/mL (≈ 18.5 µM); in the test on Staphylococcus aureus [8], 0.25 µg/mL (≈ 0.145 µM); with Staphylococcus aureus [9], 0.12 µg/mL (≈ 0.0695 µM); against Enterococcus faecalis [10] it was 4 µg/mL (≈ 2.32 µM).

As to `CN[C@H](CC(C)C)C(=O)N[C@H]1C(=O)N[C@@H](CC(N)=O)C(=O)N[C@H]2C(=O)N[C@H]3C(=O)N[C@H](C(=O)N[C@H](C(=O)O)c4cc(O)cc(O)c4-c4cc3ccc4O)[C@H](O)c3ccc(c(Cl)c3)Oc3cc2cc(c3OC2OC(C[N+](C)(C)CCO)C(O)C(O)C2OC2CC(C)(NCc3ccc(OCc4ccc(Cl)c(Cl)c4)cc3)C(O)C(C)O2)Oc2ccc(cc2Cl)[C@H]1O` (some centres undefined), the MIC against Enterococcus faecalis [1] was 2 µg/mL; with Staphylococcus aureus [2], 1 µg/mL; with Staphylococcus aureus [3], 2 µg/mL; in the test on Enterococcus faecium [4], 0.5 µg/mL; in the test with Staphylococcus aureus [5], 2 µg/mL; in the test with Enterococcus faecium [6], 4 µg/mL. The MIC against Enterococcus faecium [7] was > 64 µg/mL; in the test with Staphylococcus aureus [8] it was 2 µg/mL; with Staphylococcus aureus [9], 1 µg/mL; with Enterococcus faecalis [10], 8 µg/mL.

For the compound `CN[C@H](CC(C)C)C(=O)N[C@H]1C(=O)N[C@@H](CC(N)=O)C(=O)N[C@H]2C(=O)N[C@H]3C(=O)N[C@H](C(=O)N[C@H](C(=O)O)c4cc(O)cc(O)c4-c4cc3ccc4O)[C@H](O)c3ccc(c(Cl)c3)Oc3cc2cc(c3O[C@@H]2O[C@H](CO)[C@@H](O)[C@H](O)[C@H]2O[C@H]2C[C@](C)(N)[C@H](O)[C@H](C)O2)Oc2ccc(cc2Cl)[C@H]1O` [VANCOMYCIN], the MIC came to 16 µg/mL (≈ 11 µM) with Enterococcus faecium [6], 2050 µg/mL (≈ 1410 µM) against Enterococcus faecium [7], 8 µg/mL (≈ 5.52 µM) in the test on Staphylococcus aureus [8] and 2050 µg/mL (≈ 1410 µM) against Enterococcus faecalis [10].
